Patent publication US20230321064A1, “Products for Treating the JNCL Disease” (Beyond Batten Disease Foundation, priority 2020, published 2023)
“Also recorded” adds a separate entry of the source. Like-named read-outs stand apart in the source and are kept apart here.

What was measured:
[1] = test system: cln3 morphant zebrafish embryos; assay: Glycosphingolipid/SCMAS storage and eye phenotype in cln3 morphant zebrafish embryos; assay type: in vivo; details: miglustat 300 μM from 4 hpf for 88 h
[2] = cited from earlier work
[3] = test system: CLN3 1kb mutant human fibroblasts; assay: Glycosphingolipid and lysosomal storage in CLN3 1 kb deletion mutant fibroblasts; assay type: cell-based
[4] = test system: Cln3^Δex7-8 mice; assay: Neuronal cell death, cleaved caspase-3 immunohistology in brain sections; assay type: in vivo, mouse; details: for cell death (cleaved CAS-3) in the VPM/VPL region: 12 months of age, oral, 2% Trehalose in drinking water, Miglustat in chow (FIG. 1E)
Description: (§1) Cln3^Δex7-8 mice were obtained from the Jackson Laboratory. Control (C57BL/6J) and Cln3^Δex7-8 mice were housed 3-4 per cage in a room with a 12-h light/12-h dark cycle. Food and water were provided ad libitum. All mice used in this study were analyzed at 8 and 12 months of age and were littermates produced by crossing heterozygous Cln3^Δex7-8 mice. Only males were used for this analysis. Investigators were blinded when analyzing the data, and no randomization was necessary.
(§2) For oral administration, Trehalose was dissolved in drinking water to a final concentration of 2% and changed twice a week. Trehalose-containing water was given to Cln3^Δex7-8 mice and WT mice by spontaneous oral administration starting at 21 days of age and continuing until the day the mice were sacrificed for neuropathology studies.
(§3) Miglustat was administered in mixture with the food pellet starting at 21 days of age and continuing until the day the mice were sacrificed for neuropathology studies. Miglustat food was prepared by TestDiet using the 5V5R rodent diet (LabDiet). Two concentrations were used: 1.2 g/Kg chow (indicated as “low concentration”) and 7.2 g/Kg chow (indicated as “high concentration”) and two separate groups of Cln3^Δex7-8 mice were fed with either diet. One additional group of Cln3^Δex7-8 l mice was fed with a combination of the low-concentration Miglustat food and 2% Trehalose water.
(§4) Twelve-month-old homozygous Cln3^Δex7-8 mice and age-matched controls (WT mice) were anaesthetized with isoflurane and transcardially perfused with PBS followed by 4% buffered paraformaldehyde in 0.1 M sodium phosphate buffer, pH 7.4. Brains were subsequently removed and postfixed overnight. Before sectioning, the brains were cryoprotected in a solution containing 30% sucrose in Tris-buffered saline (TBS: 50 mM Tris, pH 7.6). Consecutive 40 μm floating coronal sections were collected in 96-well plates. Series of sections were then stained with primary antisera against CD68 (AbD
(§5) Serotec, Cat. No. MCA1957), GFAP (DAKO, Cat. No. Z0334), Subunit C of mitochondrial ATP synthase (SCMAS; Abcam, Cat. No. ab181243), or cleaved caspase 3 (Asp175) (Cell Signaling, Cat. No. 9661S) followed by either rabbit anti-rat (VectorLab) or swine anti-rabbit (DAKO) secondary antibodies, and immunoreactivity detected with Vectastain ABC (avidin-biotin) kit (Vector) and diaminobenzidine as a chromogen.
(§6) Non-overlapping images were captured, on three consecutive sections, through each region of interest. All RGB images were captured via a live video camera (JVC, 3CCD, KY-F55B), mounted onto a Zeiss Axioplan microscope using a x 40 objective and saved as JPEGs. All parameters including lamp intensity, video camera set-up and calibration were maintained constant throughout image capturing. For quantification of storage and inflammation, images were analyzed using ImageJ analysis software (NIH), using an appropriate threshold that selected the foreground immunoreactivity above background. This threshold was then applied as a constant to all subsequent images analyzed per batch of animals and reagent used to determine the specific area of immunoreactivity for each antigen in each region. Data were plotted graphically as the mean percentage area of immunoreactivity per field ±s.e.m. for each region. For quantification of cell death, images were analyzed manually and scored for the presence of apoptotic nuclei. Data were plotted graphically as the mean number of apoptotic cells per field ±s.e.m. for each region. […]

[5] = test system: Cln3^Δex7-8 mice; assay: Microglial activation, CD68 immunohistochemistry in brain sections; assay type: in vivo, mouse
Description: as §1, §2, §3, §4, §5
as §6, with “Data were plotted graphically as the mean percentage area of immunoreactivity per field ±s.e.m. for each region.” left out, “nuclei.” for “nuclei. Data were plotted graphically as the mean number of apoptotic cells per field ±s.e.m. for each region.”
(S1BF), the primary visual (V1) cortex, and the dorsolateral geniculate (DLG) (Pontikis et al., 2005). To quantify microglial activation, antibodies against the microglial marker CD68 were used. […]

[6] = test system: purified trehalase; assay: In vitro colorimetric trehalase assay (glucose generation, 340 nm); assay type: biochemical; details: in the presence of miglustat; 340 nm absorbance
Description: To this aim, an in vitro colorimetric assay was performed to measure the rate of generation of glucose, the product of trehalose hydrolysis by trehalase. In the absence of miglustat, trehalose was rapidly hydrolysed by purified trehalase, and the glucose produced could be quantified at 340 nm absorbance. In the test conditions, the amounts of glucose detected increased over time to reach a plateau in […].

[7] = test system: human CLN3 disease NPC derived cortical neurons; assay: Glycosphingolipid and lysosomal storage in CLN3 patient iPSC/NPC derived cortical neurons; assay type: cell-based
[8] = test system: Cln3^Δex7-8 mice; assay: Astrocytosis, GFAP immunohistochemistry in brain sections; assay type: in vivo, mouse
Description: as §1, §2, §3, §4, §5
Non-overlapping images were captured, on three consecutive sections, through each region of interest. All RGB images were captured via a live video camera (JVC, 3CCD, KY-F55B), mounted onto a Zeiss Axioplan microscope using a x 40 objective and saved as JPEGs. All parameters including lamp intensity, video camera set-up and calibration were maintained constant throughout image capturing. For quantification of storage and inflammation, images were analyzed using ImageJ analysis software (NIH), using an appropriate threshold that selected the foreground immunoreactivity above background. This threshold was then applied as a constant to all subsequent images analyzed per batch of animals and reagent used to determine the specific area of immunoreactivity for each antigen in each region. Data were plotted graphically as the mean percentage area of immunoreactivity per field ±s.e.m. for each region. For quantification of cell death, images were analyzed manually and scored for the presence of apoptotic nuclei. Data were plotted graphically as the mean number of apoptotic cells per field ±s.e.m. for each region. All analyses were performed blind to genotype and treatment.
[…] was also quantified by performing immunohistochemistry staining of brain sections of all test and control mice using anti-GFAP antibodies.

[9] = test system: Cln3^Δex7-8 mice; assay: Lysosomal storage in cerebellum (SCMAS staining); assay type: in vivo, mouse; details: 12 months of age
Description: as §1
For oral administration, Trehalose was dissolved in drinking water to a final concentration of 2% and changed twice a week. […]
as §5
Non-overlapping images were captured, on three consecutive sections, through each region of interest. […] For quantification of storage and inflammation, images were analyzed using ImageJ analysis software (NIH), using an appropriate threshold that selected the foreground immunoreactivity above background. […]

[10] = Miglustat 50 μM during the final week of differentiation

## CCCCN1C[C@H](O)[C@@H](O)[C@H](O)[C@H]1CO [Miglustat, (2R,3R,4R,5S)-1-butyl-2-(hydroxymethyl)piperidine-3,4,5-triol]
[1]
  fluorescence intensity of glycolipids and of lipofuscin associated SCMAS storage: normalised; also recorded: decrease, particularly in the brain, in fluorescence intensity
  ganglioside GM1 storage within the brain (CtxB line scans): reduced; also recorded: normalised
  retinal area: restored to wild-type levels
[2]; as a free base
  Solubility in water: (>1000 mg/mL as a free base).
[2]
  Solubility in water: Miglustat: Highly soluble in water
[3]; 50 μM miglustat
  accumulation of SCMAS: significantly reduced
  localisation of CtxB (ganglioside GM1): restores sub-plasma membrane localisation
  lysosomal inclusions by EM: notable absence of the dark membranous whorl-like inclusions
  peak CtxB fluorescence (confocal line scans): clearly reduces the peak CtxB fluorescence
  swollen mitochondria with abnormal cristae (electron microscopy): normalised
[3]; 50 μM miglustat for 5 days
  accumulating GSLs (ganglioside GM1 by CtxB, globosides Gb3/4 by SLxT): normalised; also recorded: significant reduction in the accumulating GSLs back to control levels
[3]; 50 μM miglustat, ionomycin/GPN, Fura 2,AM
  elevated lysosomal Ca2+: restored to healthy control levels
[3]; 50 μM miglustat, listed as miglustat
  localisation of CtxB (ganglioside GM1): normalisation in localisation of CtxB back to the plasma membrane
[3]; 50 μM miglustat, live cells
  autophagy (CytoID): normalisation in elevated autophagy
  expansion of the lysosomal system (lysotracker staining): normalisation in the visible expansion of the lysosomal system
[4]
  cell death (cleaved CAS-3) in the VPM/VPL region: largely suppressed
[4]; listed as miglustat
  cell death (cleaved CAS-3) in the VPM/VPL region: prevented
[4]; regions analyzed: VPM/VPL, dLG, S1BF, V1 (FIGS. 1A-D), oral treatment
  programmed cell death (cleaved caspase-3 reactive cells): effective in abating programmed cell death
[5]; FIG. 2A
  microglial activation (CD68) in the VPM/VPL: potently prevented microglial activation; also recorded: undistinguishable from WT mice
[5]; FIG. 2B
  microglial activation (CD68) in the DLG: significantly decreased microglial activation
[5]; low concentrations of Miglustat (1.2 g/Kg chow), FIG. 2E
  CD68 staining in the VPM/VPL: largely reduce CD68 staining
[5]; low concentrations of Miglustat, not shown
  CD68 staining in the cerebellum: partially or largely reduce CD68 staining
[6]
  trehalase-mediated hydrolysis of trehalose to glucose (glucose generated): only a minimal amount of glucose was generated
[7]; [10]
  excitotoxic glutamate induced Ca2+ signalling: normalisation of excitotoxic glutamate induced Ca^2+ signalling
  expansion of the lysosomal and autophagic vacuole systems (lysotracker and cytoID staining): reduction in expansion of the lysosomal and autophagic vacuole systems
  lipid and protein storage levels (globoside, ganglioside GM1, SCMAS): normalised; also recorded: reduced lipid and protein storage levels
  lipid localisation: normalisation of lipid localisation
[7]; Miglustat 50 μM, ionomycin/GPN, Fura 2,AM
  lysosomal Ca2+ content: normalisation of lysosomal Ca^2+ content
[8]; 12 months of age, oral, Miglustat even at low doses (FIG. 3E)
  astroglial activation (GFAP staining) in the VPM/VPL region: largely suppressed
[8]; FIG. 3A
  astrocytosis (GFAP immunoreactivity) in the VPM/VPL: undistinguishable from that of WT mice
[8]; FIG. 3B
  astrocytosis (GFAP immunoreactivity) in the DLG: prevented astrocytosis
[8]; FIG. 3C
  astrocytosis (GFAP) in the S1BF: reduction in astrocytosis, although this did not reach statistical significance
[9]
  increased storage in the cerebellum (SCMAS staining): no consistent effects
